Measurements from patent publication US6426229B1, “Chelating agent and detergent comprising the same” (Mitsubishi Rayon Co., Ltd., priority 1995, dated 2002).

Assay: not given
Details: reported value; cited from earlier work

| SMILES | chelate stability constant for calcium |
| --- | --- |
| O=C(O)CN(CC(=O)O)CC(=O)O [NTA, nitrilotriacetic acid, reference compound] | 6.4 |
| O=C(O)C[C@@H](C(=O)O)N(CC(=O)O)CC(=O)O [S-ASDA, (S)-aspartic acid-N,N-diacetic acid] | 5.8 |
| CN(CC(=O)O)CC(=O)O [MIDA, N-methyliminodiacetic acid] | 3.7 |
| O=C(O)CN(CCS(=O)(=O)O)CC(=O)O [TUDA, taurine-N,N-diacetic acid] | 4.2 |

Assay: Biodegradability, 301C Modified MITI Test (1) (OECD guideline)
Details: not given

| SMILES | biodegradability in 301C Modified MITI Test |
| --- | --- |
| CN(CC(=O)O)CC(=O)O [MIDA, N-methyliminodiacetic acid] | completely decomposed to inorganic materials in a short time |
| O=C(O)CN[C@@H](CC(=O)O)C(=O)O [S-ASMA, (S)-aspartic acid-N-monoacetic acid] | completely converted to inorganic materials in a short time |
| O=C(O)CCN[C@@H](CC(=O)O)C(=O)O [S-ASMP, (S)-aspartic acid-N-monopropionic acid] | completely converted to inorganic materials in a short time |

Assay: Storage of aqueous solution or slurry for 60 days: HPLC analysis of components and appearance
Type: physicochemical
Details: keeping temperature 50° C.
Method: (§1) This aqueous solution was kept at 50° C. for 60 days, and, then, the components were analyzed by HPLC and, simultaneously, the appearance of the solution was observed.
as §1
This aqueous solution was kept at 50° C. for 60 days. Then, the components were analyzed by HPLC and, simultaneously, the appearance of the solution was observed.

| SMILES | Appearance after kept for 60 days | Content of the compound of the formula [I] in aqueous solution after kept for 60 days [wt. %] |
| --- | --- | --- |
| O=C([O-])CC(NCCCNC(CC(=O)[O-])C(=O)[O-])C(=O)[O-].[Cu+2].[Na+].[Na+] (stereo not shown) [Example 126, copper disodium 1,3-propanediamine-N,N′-disuccinate] | Dark blue transparent aqueous solution | 36.4 |
| O=C([O-])CC(NCCCNC(CC(=O)[O-])C(=O)[O-])C(=O)[O-].[Cu+2].[Na+].[Na+] (stereo not shown) [compound 50, copper disodium 1,3-propanediamine-N,N′-disuccinate] | Dark blue transparent aqueous solution | 32.2 |
| C[C@@H](C(=O)[O-])N(CC(=O)[O-])CC(=O)[O-].[Na+].[Na+].[Na+] [compound 32, trisodium salt of (S)-α-alanine-N,N-diacetic acid] | Brown aqueous solution | 31.8 |
| O=C([O-])C[C@@H](C(=O)[O-])N(CC(=O)[O-])CC(=O)[O-].[Na+].[Na+].[Na+].[Na+] [compound 30, tetrasodium salt of (S)-aspartic acid-N,N-diacetic acid] | Brown aqueous solution | 31.8 |
| O=C([O-])CN(CCS(=O)(=O)[O-])CC(=O)[O-].[Na+].[Na+].[Na+] [compound 37, trisodium salt of taurine-N,N-diacetic acid] | Brown aqueous solution | 30.4 |
| O=C([O-])CCN[C@@H](CC(=O)[O-])C(=O)[O-].[Na+].[Na+].[Na+] [Example 87, trisodium salt of (S)-aspartic acid-N-monopropionic acid] | Light yellow transparent aqueous solution | 37.8 |
